Assay type in all cases: cell-based
In one assay the test system is Septoria tritici. Briefly: Microtest, activity against leaf blotch on wheat. To be noted: 405 nm 9 days after inoculation, comparative example.
In the next assay the test system is Phytophthora infestans. Conditions: 405 nm 7 days after inoculation, comparative example.
Another assay relates to Leptosphaeria nodorum. Briefly: Microtest, activity against wheat leaf spots. Conditions: 405 nm 9 days after inoculation, comparative example.

As for `CC1(C)N=C(c2cnc3ccccc3c2)c2ccccc2C1(C)C`, the “Growth (%) at 8 ppm” value in the assay with Septoria tritici turned out to be 74%. In the case of `CC1(C)N=C(c2cnc3ccccc3c2)c2[nH]ccc2C1(C)C`, the “Growth (%) at 8 ppm” value with Septoria tritici was found to be 53%. With `CC1(C)Cc2ccccc2C(c2cnc3ccccc3c2)=N1` [drawing 139], the “Growth (%) at 31 ppm” value in the assay with Phytophthora infestans was 33%. `CC1(C)Cc2cc[nH]c2C(c2cnc3ccccc3c2)=N1` [drawing 140]: the “Growth (%) at 31 ppm” value in the assay with Phytophthora infestans was found to be 17%. In the case of `CC1(C)Cc2ccccc2C(c2cnc3ccccc3c2)=N1` [drawing 141], the “Growth (%) at 2 ppm” value in the assay on Leptosphaeria nodorum is given as 83%. `CC1(C)Cc2cc[nH]c2C(c2cnc3ccccc3c2)=N1` [drawing 142]: in the assay with Leptosphaeria nodorum, the “Growth (%) at 2 ppm” value came to 65%.

The values are drawn from patent publication US20180086714A1 (priority 2015, published 2018).
